Laboratory results: patent publication US20240226026A1, “BRANCHED TAIL LIPID COMPOUNDS AND COMPOSITIONS FOR INTRACELLULAR DELIVERY OF THERAPEUTIC AGENTS” (ModernaTX, Inc., priority 2021, published 2024)

Legend:
[1] = Encapsulation efficiency (% EE) of lipid nanoparticles; type: physicochemical; conditions: nanoparticles comprising the lipid
Description: For nanoparticle compositions including an RNA, a QUANT-IT™ RIBOGREEN® RNA assay (Invitrogen Corporation Carlsbad, CA) can be used to evaluate the encapsulation of an RNA by the nanoparticle composition. The samples are diluted to a concentration of approximately 5 μg/mL in a TE buffer solution (10 mM Tris-HCl, 1 mM EDTA, pH 7.5). 50 μL of the diluted samples are transferred to a polystyrene 96 well plate and either 50 μL of TE buffer or 50 μL of a 2% Triton X-100 solution is added to the wells. The plate is incubated at a temperature of 37° C. for 15 minutes. The RIBOGREEN® reagent is diluted 1:100 in TE buffer, and 100 μL of this solution is added to each well. The fluorescence intensity can be measured using a fluorescence plate reader (Wallac Victor 1420 Multilablel Counter; Perkin Elmer, Waltham, MA) at an excitation wavelength of, for example, about 480 nm and an emission wavelength of, for example, about 520 nm. The fluorescence values of the reagent blank are subtracted from that of each of the samples and the percentage of free RNA is determined by dividing the fluorescence intensity of the intact sample (without addition of Triton X-100) by the fluorescence value of the disrupted sample (caused by the addition of Triton X-100).
The efficiency of encapsulation of a therapeutic and/or prophylactic describes the amount of therapeutic and/or prophylactic that is encapsulated or otherwise associated with a lipid nanoparticle (e.g., an empty LNP or a loaded LNP) after preparation, relative to the initial amount provided. The encapsulation efficiency is desired to be high (e.g., close to 100%). The encapsulation efficiency may be measured, for example, by comparing the amount of therapeutic and/or prophylactic in a solution containing a loaded LNP before and after breaking up the loaded LNP with one or more organic solvents or detergents. Fluorescence may be used to measure the amount of free therapeutic and/or prophylactic (e.g., RNA) in a solution. For the loaded LNPs formulated with lipids of the disclosure, the encapsulation efficiency of a therapeutic and/or prophylactic is at least 50%, for example 50%, 55%, 60%, 65%, 70%, 75%, 80%, 85%, 90%, 91%, 92%, 93%, 94%, 95%, 96%, 97%, 98%, 99%, or 100%. In some embodiments, the encapsulation efficiency is at least 80%. In some embodiments, the encapsulation efficiency is at least 90%. In some embodiments, the encapsulation efficiency of the therapeutic and/or prophylactic agent is between 80% and 100%.
(§1) Lipid nanoparticles (e.g., empty LNPs or loaded LNPs) including DSPC as a phospholipid, cholesterol as a structural lipid, PL-II (e.g., PEG-1) as a PEG lipid, and a lipid according to Formula (I-1), (I), (I-A), (I-A1), (I-A2), (I-A3), or (I-A4) were prepared. In some embodiments, the lipid nanoparticles further included rhodamine-DOPE as a fluorescent lipid. Tables 2a, 2b, and 3 summarize the characteristics of the formulations.

[2] = Particle size (diameter) and polydispersity index of lipid nanoparticles; type: physicochemical; conditions: nanoparticles comprising the lipid
Description: A Zetasizer Nano ZS (Malvern Instruments Ltd, Malvern, Worcestershire, UK) can be used to determine the particle size, the polydispersity index (PDI) and the zeta potential of the nanoparticle compositions in 1×PBS in determining particle size and 15 mM PBS in determining zeta potential.
Lipid nanoparticles (e.g., empty LNPs or loaded LNPs) may be characterized by a variety of methods. For example, microscopy (e.g., transmission electron microscopy or scanning electron microscopy) may be used to examine the morphology and size distribution of a nanoparticle composition. Dynamic light scattering or potentiometry (e.g., potentiometric titrations) may be used to measure zeta potentials. Dynamic light scattering may also be utilized to determine particle sizes. Instruments such as the Zetasizer Nano ZS (Malvern Instruments Ltd, Malvern, Worcestershire, UK) may also be used to measure multiple characteristics of a nanoparticle composition, such as particle size, polydispersity index, and zeta potential.
as §1

[3] = Apparent pKa of lipid nanoparticles; type: physicochemical; conditions: for Apparent pKa 95% CI: Table 2b, 95% confidence interval; for Apparent pKa: Table 2a, nanoparticles comprising the lipid
CD-1 mice = experiment: Expression of hEPO induced by LNPs (mRNA encoding hEPO) administered to mice; type: in vivo; conditions: Table 4a, serum, 6 h after intravenous injection; for Avg. hEPO Concentration (mIU/mL)* ± Avg. SD: ELLA Simple Plex Assay
Description: In some embodiments, hEPO concentrations were determined using an […] (ELLA) Simple Plex Assay (ProteinSimple) with a Human Erythroprotein cartridge. Standards for this assay are calibrated according to the 2. IRP WHO preparation. Nanoparticle compositions including mRNA are useful in the evaluation of the efficacy and usefulness of various formulations for the delivery of therapeutic and/or prophylactics. Higher levels of protein expression induced by administration of a composition including an mRNA will be indicative of higher mRNA translation and/or nanoparticle composition mRNA delivery efficiencies. As the non-RNA components are not thought to affect translational machineries themselves, a higher level of protein expression is likely indicative of a higher efficiency of delivery of the therapeutic and/or prophylactic by a given nanoparticle composition relative to other nanoparticle compositions or the absence thereof.
To assess potency of expression of lipids of the disclosure, the protein expression (hEPO) following administration of a nanoparticle comprising a lipid of the disclosure (e.g., a loaded LNP) to mice was measured.
Lipid nanoparticles (LNPs) including DSPC as a phospholipid, cholesterol as a structural lipid, PL-II (e.g., PEG-1) as a PEG lipid, a lipid according to Formula (I-1), (I), (I-A), (I-A1), (I-A2), (I-A3), or (I-A4), and an mRNA encoding hEPO were intravenously administered to CD-1 mice. The concentration of hEPO in serum was tested at 6 h after injection.

[4] = Lipid nanoparticle surface hydrophobicity by Generalized Polarization by Laurdan (N-GP); type: physicochemical; conditions: for LNP surface hydrophobicity (N-GP*): Table 2b, nanoparticles comprising the lipid; for Lipid nanoparticle surface hydrophobicity (N-GP*): Table 2a, Laurdan, higher N-GP indicates a less polar surface
Source text: Surface hydrophobicity of nanoparticles of the disclosure can be measured by Generalized Polarization by Laurdan (GPL). In this method, Laurdan, a fluorescent aminonaphthalene ketone lipid, is post-inserted into the nanoparticle surface and the fluorescence spectrum of Laurdan is collected to determine the normalized Generalized Polarization (N-GP). In some embodiments, nanoparticles formulated with lipids of the disclosure have a surface hydrophobicity expressed as N-GP of between about 0.5 and about 1.5. For example, in some embodiments, nanoparticles formulated with lipids of the disclosure have a surface hydrophobicity expressed as N-GP of about 0.5, about 0.6, about 0.7, about 0.8, about 0.9, about 1.0, about 1.1, about 1.2, about 1.3, about 1.4, or about 1.5. In some embodiments, nanoparticles formulated with lipids of the disclosure have a surface hydrophobicity expressed as N-GP of about 1.0 or about 1.1.

[5] = Table 2a, DSPC, cholesterol, PEG lipid

SMILES | % EE ([1]; Table 2b) | % EE ([1]; Table 3) | Diameter (nm) ([2]; Table 2b) | PDI ([2]; Table 2b) | Diameter (nm) ([2]; Table 3) | PDI ([2]; Table 3) | Apparent pKa 95% CI [3] | LNP surface hydrophobicity (N-GP*) [4] | % EE ([1]; Table 2a) | PDI ([2]; Table 2a) | Diameter (nm) [2, 5] | Apparent pKa [3] | Lipid nanoparticle surface hydrophobicity (N-GP*) [4] | Avg. hEPO Concentration (mIU/mL)* ± Avg. SD (CD-1 mice) | Avg. hEPO Concentration (mIU/mL) ± Avg. SD (CD-1 mice)
CCCCCC(CCCCC)CCOC(=O)CCCCCCCN(CCCCCCCC(=O)OCCC(CCCC)CCCC)CCCNc1ncccc1N [Compound 14] | 94.4% | 98.6% | 184.7 nm | 0.366 | 111.7 nm | 0.282 | 6.808 to 6.931 | 1.00 | – | – | – | – | – | 5.96E+05 ± 9.17E+03 mIU/mL | –
CCCCCCCC(CCCCCCC)OC(=O)CCCCCCCN(CCCCCCCC(=O)OCCC(CCCC)CCCC)CCCNc1n[s+]([O-])nc1NC (centres unmarked) [Compound 15] | – | 97.2% | – | – | 74.2 nm | 0.212 | – | – | 96.6% | 0.128 | 76.4 nm | 6.761 | 0.94 | – | 3.74E+06 ± 1.61E+05 mIU/mL
CCCCCCCC(CCCCCCC)OC(=O)CCCCCCCN(CCCCCCCC(=O)OCCC(CCCC)CCCC)CCCNc1noc(N)n1 [Compound 16] | 98.2% | 97.7% | 70.9 nm | 0.118 | 56.8 nm | 0.113 | 6.344 to 6.479 | 1.19 | – | – | – | – | – | 6.19E+05 ± 1.05E+04 mIU/mL | –
CCCCCCCC(CCCCCCC)OC(=O)CCCCCCCN(CCCCCCCC(=O)OCCC(CCCC)CCCC)CCCNS(=O)(=O)CCOC [Compound 17] | – | 93.5% | – | – | 90 nm | 0.129 | – | – | 77.1% | 0.128 | 89.7 nm | 6.689 | 1.02 | – | 1.00E+07 ± 2.34E+05 mIU/mL
CCCCCCCC(CCCCCCC)OC(=O)CCCCCCCN(CCCCCCCC(=O)OCCC(CCCC)CCCC)CCCNC(=O)C1(C)CC1 [Compound 18] | 18.6% | 23.9% | 144.2 nm | 0.207 | 95.9 nm | 0.174 | 6.744 to 6.808 | 1.05 | – | – | – | – | – | 5.45E+06 ± 1.26E+05 mIU/mL | –

More lines, main results first:

% EE ([1]; Table 2b) | % EE ([1]; Table 3) | Diameter (nm) ([2]; Table 2b) | PDI ([2]; Table 2b) | Diameter (nm) ([2]; Table 3) | PDI ([2]; Table 3) | Apparent pKa 95% CI [3] | LNP surface hydrophobicity (N-GP*) [4] | % EE ([1]; Table 2a) | PDI ([2]; Table 2a) | Diameter (nm) [2, 5] | Apparent pKa [3] | Lipid nanoparticle surface hydrophobicity (N-GP*) [4] | SMILES | Avg. hEPO Concentration (mIU/mL)* ± Avg. SD (CD-1 mice) | Avg. hEPO Concentration (mIU/mL) ± Avg. SD (CD-1 mice)
77.0% | 94.5% | 86.4 nm | 0.187 | 84.5 nm | 0.129 | 6.572 to 6.671 | 1.00 | 77.2% | 0.127 | 82.8 nm | 6.551 | 1.00 | CCCCCCCC(CCCCCCC)OC(=O)CCCCCCCN(CCCCCCCC(=O)OCCC(CCCC)CCCC)CCCNS(=O)(=O)CC [Compound 19] | – | 1.36E+07 ± 2.52E+05 mIU/mL
84.0% | 87.5% | 76.7 nm | 0.132 | 66 nm | 0.106 | 6.441 to 6.526 | 1.00 | – | – | – | – | – | CCCCCCCC(CCCCCCC)OC(=O)CCCCCCCN(CCCCCCCC(=O)OCCC(CCCC)CCCC)CCCNS(=O)(=O)Cc1ccon1 [Compound 20] | 5.30E+06 ± 1.59E+05 mIU/mL | –
97.9% | 98.4% | 98.9 nm | 0.305 | 92.8 nm | 0.255 | 6.685 to 6.778 | 1.18 | – | – | – | – | – | CCCCCCCC(CCCCCCC)OC(=O)CCCCCCCN(CCCCCCCC(=O)OCCC(CCCC)CCCC)CCCNc1ncccc1N [Compound 21] | 8.77E+05 ± 1.73E+04 mIU/mL | –
– | 97.2% | – | – | 83.4 nm | 0.195 | – | – | 95.6% | 0.104 | 78.3 nm | 6.895 | 1.03 | CCCCCC(CCCCC)CCOC(=O)CCCCCCCN(CCCCCCCC(=O)OCCC(CCCCC)CCCCC)CCCNc1n[s+]([O-])nc1NC (centres unmarked) [Compound 22] | – | 7.14E+06 ± 1.53E+05 mIU/mL
98.1% | 96.4% | 87.2 nm | 0.181 | 62.7 nm | 0.144 | 6.511 to 6.611 | 0.95 | – | – | – | – | – | CCCCCC(CCCCC)CCOC(=O)CCCCCCCN(CCCCCCCC(=O)OCCC(CCCCC)CCCCC)CCCNc1noc(N)n1 [Compound 23] | 1.17E+06 ± 1.91E+04 mIU/mL | –
– | 95.4% | – | – | 93.8 nm | 0.17 | – | – | 82.9% | 0.112 | 87.9 nm | 6.725 | 1.05 | CCCCCC(CCCCC)CCOC(=O)CCCCCCCN(CCCCCCCC(=O)OCCC(CCCCC)CCCCC)CCCNS(=O)(=O)CCOC [Compound 24] | – | 8.30E+06 ± 1.36E+05 mIU/mL
